Laboratory results reported in patent publication US20240368191A1, “HETEROCYCLIC COMPOUNDS AND USES THEREOF” (Kumquat Biosciences Inc., priority 2021, published 2024).

How the values were obtained:
[1] = target: T1, KRAS G12S 1-169 (His-tagged, GDP-loaded) (Homo sapiens, UniProt P01116, G12S); experiment: Covalent modification of KRAS protein by intact-protein LC-MS; assay type: binding; details: for % G12S Modification at 24 hr.: KRAS G12S
T1 construct: His -tagged GDP-loaded G12S 1-169; made in house; host or cells: E. coli, e.g. BL21 (DE3)
Method in brief: (§1)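 Percent modification is derived from deconvoluted intact-protein LC-ESI-MS peak intensities of adducted versus unmodified KRAS. GDP-loaded His-tagged KRAS 1-169 (~2 μM, HEPES buffer at physiological conditions) was exposed to compound for 24 hrs at room temperature, then quenched with formic acid before C4 reversed-phase separation.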

[2] = target: T2, KRAS G12D 1-169 (His-tagged, GDP-loaded) (Homo sapiens, UniProt P01116, G12D); experiment: as above; assay type: binding; details: comparable or same conditions as K-Ras G12S
T2 construct: His -tagged GDP-loaded G12D 1-169; made in house; host or cells: E. coli, e.g. BL21 (DE3)
Method in brief: as §1

in vitro = details: microsomes, pH 7.4
Description: The metabolic stability of a test compound is assayed at 37° C. using pooled liver microsomes (mouse or human liver microsomes). An aliquot of 10 μL of 50 μM test compound is mixed with 490 μL of 0.611 mg/mL liver microsomes, then 50 μL of the mixtures are dispensed to the 96 well tubes and warmed at 37° C. for 10 minutes. The reactions are initiated by adding 50 μL of the pre-warmed NADPH regeneration system solution (add 1.2 μL solution, 240 μl solution B, mix with 10.56 ml KPBS) and then incubated at 37° C. The final incubation solution contains 100 mM potassium phosphate (pH 7.4), 1.3 mM NADP+, 3.3 mM glucose 6-phosphate, 0.4 Unit/mL of glucose 6-phosphate dehydrogenase, 3.3 mM magnesium chloride, 0.3 mg/mL liver microsomes and 0.5 μM test article. After 0, 15, 30 and 60 minutes in a shaking incubator, the reactions are terminated by adding 100 μL of acetonitrile containing 200 nM buspirone as an internal standard. All incubations are conducted in duplicate. […] Samples are then centrifuged at 3500 rpm for 10 minutes (4° C.) using Sorvall Legend XRT Centrifuge (Thermo Scientific, GE). Supernatants (40 μL) are transferred into clean 96-deep well plates. Each well is added with 160 μL of ultrapure water (Milli-Q, Millipore Corporation) with 0.1% (v/v) formic acid (Fisher Chemical), mixed thoroughly and subjected to LC/MS/MS analysis in MRM positive ionization mode.
All the samples are measured using a mass spectrometer (QTrap 5500 quadrupole/ion trap) coupled with a Shimadzu HPLC system. The HPLC system consisted of a Shimadzu series degasser, binary quaternary gradient pumps, column heater coupled to an autosampler, and a Phenomenex Gemini-NX, C18, 3.0 μm or Phenomenex Lunar, C8, 5.0 μM HPLC column (Phenomenex, Torrance, CA), and eluted with a mobile phase gradient consisting of Solution A (0.1% formic acid water) and Solution B (0.1% formic acid acetonitrile). The column temperature is maintained at 40° C. All the analytes are detected with positive-mode electrospray ionization (ES+).
The half-life for the metabolic degradation of the test compound is calculated by plotting the time-course disappearance of the test compound during the incubation with liver microsomes. Each plot is fitted to a first-order equation for the elimination of the test compound (% remaining compound) versus time using non-linear regression (Equation 1).
where Ct is the mean relative substrate concentration at time t and C0 is the initial concentration (0.5 μM) at time 0. Note that the area ratio of the substrate peak to an internal standard peak is proportional to the analyte concentration and is used for regression analysis to derive a value of k.

Structure (SMILES)	K-Ras12S engagement after 24-hour treatment ([1]; 24-hour treatment)	% G12S Modification at 24 hr. [1]	covalent labeling of K-Ras G12D [2]	half-life at 0.5 μM (in vitro) [min]
N#Cc1cn(C(=O)N2C3CCC2CN(c2nc(OC[C@@]45CCCN4C[C@H](F)C5)nc4c(F)c(-c5ccc(F)c6sc(N)nc56)c(Cl)cc24)C3)cn1 [Compound A123, 1-(3-(7-(2-amino-7-fluorobenzo-[d]thiazol-4-yl)-6-chloro-8-fluoro-2-(((2R,7aS)-2-fluoro-tetrahydro-1H-pyrrolizin-7a(5H)-yl)methoxy)quinazolin-4-yl)-3,8-diazabicyclo[3.2.1]-octane-8-carbonyl)-1H-imid-azole-4-carbonitrile]	++ (++: indicates between 1% to 20% labelling)	++ (++ indicates between about 1%-20% labelling)	–	–
N#Cc1c(N)sc2c(F)ccc(-c3ncc4c(N5CC6CCC(C5)N6C(=O)n5ccnc5C#N)nc(OC[C@@]56CCCN5C[C@H](F)C6)nc4c3F)c12 [Compound A165, 1-(3-(7-(2-amino-3-cyano-7-fluorobenzo[b]thiophen-4-yl)-8-fluoro-2-(((2R,7aS)-2-fluoro-tetrahydro-1H-pyrrolizin-7a(5H)-yl)methoxy)pyrido[4,3-d]pyrimidin-4-yl)-3,8-diaza-bicyclo[3.2.1]octane-8-carbon-yl)-1H-imidazole-2-carbonitrile]	–	–	essentially no detectable labeling	> 10
N#Cc1nccn1C(=O)N1C2CCC1CN(c1nc(OC[C@@]34CCCN3C[C@H](F)C4)nc3c(F)c(-c4ccc(F)c5sc(N)nc45)c(Cl)cc13)C2 [Compound A170, 1-(3-(7-(2-amino-7-fluorobenzo-[d]thiazol-4-yl)-6-chloro-8-fluoro-2-(((2R,7aS)-2-fluoro-tetrahydro-1H-pyrrolizin-7a(5H)-yl)methoxy)quinazolin-4-yl)-3,8-diazabicyclo[3.2.1]-octane-8-carbonyl)-1H-imid-azole-2-carbonitrile]	–	++ (++ indicates between about 1%-20% labelling)	–	–
C#Cc1c(F)ccc2cc(O)cc(-c3ncc4c(N5C6COCC5CN(C(=O)n5cc(C#N)cn5)C6)nc(OC[C@@]56CCCN5C[C@H](F)C6)nc4c3F)c12 [Compound A226, 1-(9-(7-(8-ethynyl-7-fluoro-3-hydroxynaphthalen-1-yl)-8-fluoro-2-(((2R,7aS)-2-fluoro-tetrahydro-1H-pyrrolizin-7a(5H)-yl)methoxy)pyrido[4,3-d]pyrimidin-4-yl)-3-oxa-7,9-diazabicyclo[3.3.1]nonane-7-carbonyl)-1H-pyrazole-4-carbo-nitrile]	–	–	–	> 10
C#Cc1c(F)ccc2cc(O)cc(-c3ncc4c(N5CC6CCC(C5)N6C(=O)n5cncn5)nc(OC[C@@]56CCCN5C[C@H](F)C6)nc4c3F)c12 [Compound A234, (3-(7-(8-ethynyl-7-fluoro-3-hydroxynaphthalen-1-yl)-8-fluoro-2-(((2R,7aS)-2-fluoro-tetrahydro-1H-pyrrolizin-7a(5H)-yl)methoxy)pyrido[4,3-d]pyrimidin-4-yl)-3,8-diaza-bicyclo[3.2.1]octan-8-yl)(1H-1,2,4-triazol-1-yl)methanone]	–	–	–	> 10
N#Cc1cnn(C(=O)N2CC3COCC(C2)N3c2nc(OC[C@@]34CCCN3C[C@H](F)C4)nc3c(F)c(-c4ccc(F)c5sc(N)c(C#N)c45)c(Cl)cc23)c1 [Compound A249, 1-(9-(7-(2-amino-3-cyano-7-fluorobenzo[b]thiophen-4-yl)-6-chloro-8-fluoro-2-(((2R,7aS)-2-fluorotetrahydro-1H-pyrrolizin-7a(5H)-yl)methoxy)quinazolin-4-yl)-3-oxa-7,9-diazabicyclo-[3.3.1]nonane-7-carbonyl)-1H-pyrazole-4-carbonitrile]	–	–	–	> 10
N#Cc1cnn(C(=O)N2C3CCC2CN(c2nc(OC[C@@]45CCCN4C[C@H](F)C5)nc4c(F)c(-c5ccc(F)c6sc(N)nc56)c(Cl)cc24)C3)c1 [Compound A253, 1-(3-(7-(2-amino-7-fluorobenzo-[d]thiazol-4-yl)-6-chloro-8-fluoro-2-(((2R,7aS)-2-fluoro-tetrahydro-1H-pyrrolizin-7a(5H)-yl)methoxy)quinazolin-4-yl)-3,8-diazabicyclo[3.2.1]-octane-8-carbonyl)-1H-pyrazole-4-carbonitrile]	–	–	–	> 10
C#Cc1c(F)ccc2cc(O)cc(-c3ncc4c(N5CC6CCC(C5)N6C(=O)n5cnc(C#N)c5)nc(OC[C@@]56CCCN5C[C@H](F)C6)nc4c3F)c12 [Compound A255, 1-(3-(7-(8-ethynyl-7-fluoro-3-hydroxynaphthalen-1-yl)-8-fluoro-2-(((2R,7aS)-2-fluoro-tetrahydro-1H-pyrrolizin-7a(5H)-yl)methoxy)pyrido[4,3-d]pyrimidin-4-yl)-3,8-diaza-bicyclo[3.2.1]octane-8-carbon-yl)-1H-imidazole-4-carbonitrile]	–	++ (++ indicates between about 1%-20% labelling)	essentially no detectable labeling	–
N#Cc1c(N)sc2c(F)ccc(-c3c(Cl)cc4c(N[C@H]5C[C@H]6CC[C@@H](C5)N6C(=O)n5cncn5)nc(OC[C@@]56CCCN5C[C@H](F)C6)nc4c3F)c12 [Compound A257, 4-(4-(((1R,3r,5S)-8-(1H-1,2,4-triazole-1-carbonyl)-8-aza-bicyclo-[3.2.1]octan-3-yl)-amino)-6-chloro-8-fluoro-2-(((2R,7aS)-2-fluorotetrahydro-1H-pyrrolizin-7a(5H)-yl)meth-oxy)quinazolin-7-yl)-2-amino-7-fluorobenzo[b]thiophene-3-carbonitrile]	–	++ (++ indicates between about 1%-20% labelling)	essentially no detectable labeling	–
N#Cc1c(N)sc2c(F)ccc(-c3c(Cl)cc4c(N5CC6CCC(C5)N6C(=O)n5cncn5)nc(OC[C@@]56CCCN5C[C@H](F)C6)nc4c3F)c12 [Compound A260, 4-(4-(8-(1H-1,2,4-triazole-1-carbonyl)-3,8-diazabicyclo-[3.2.1]octan-3-yl)-6-chloro-8-fluoro-2-(((2R,7aS)-2-fluoro-tetrahydro-1H-pyrrolizin-7a(5H)-yl)methoxy)quinazolin-7-yl)-2-amino-7-fluorobenzo-[b]thiophene-3-carbonitrile]	–	–	–	> 10
N#Cc1c(N)sc2c(F)ccc(-c3c(Cl)cc4c(N5CCN(C(=O)n6cncn6)CC(F)(F)C5)nc(OC[C@@]56CCCN5C[C@H](F)C6)nc4c3F)c12 [Compound A280, 2-amino-4-(6-chloro-4-(6,6-difluoro-4-(1H-1,2,4-triazole-1-carbonyl)-1,4-diazepan-1-yl)-8-fluoro-2-(((2R,7aS)-2-fluoro-tetrahydro-1H-pyrrolizin-7a(5H)-yl)methoxy)quinazolin-7-yl)-7-fluorobenzo[b]thio-phene-3-carbonitrile]	–	+++ (+++ indicates greater than 20% labelling)	essentially no detectable labeling	–
C#Cc1c(F)ccc2cc(O)cc(-c3ccc4c(N5CC6CCC(C5)N6C(=O)n5cncn5)nc(OC[C@@]56CCCN5C[C@H](F)C6)nc4c3F)c12 [Compound A281, (3-(7-(8-ethynyl-7-fluoro-3-hydroxynaphthalen-1-yl)-8-fluoro-2-(((2R,7aS)-2-fluoro-tetrahydro-1H-pyrrolizin-7a(5H)-yl)methoxy)quinazolin-4-yl)-3,8-diazabicyclo[3.2.1]-octan-8-yl)(1H-1,2,4-triazol-1-yl)methanone]	–	–	–	> 10
